Results reported in US20040110802A1, “Antibacterial benzoic acid derivatives” (priority 2002, published 2004).
In brackets after ≈: the same amount, converted by molar mass.

system: SAUR 9218; experiment: MIC Test Method, standard agar dilution; format: cell-based; conditions: agar dilution, Mueller Hinton agar, incubated overnight at 35° C.; lowest concentration that inhibits visible growth
Method in brief: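 Agar dilution in Mueller Hinton agar with serial 2-fold compound dilutions. Staphylococcus aureus strain 9218 spotted at approximately 10^4 to 10^5 cells per spot, incubated overnight at 35 °C; MIC (μg/ml) is the lowest concentration preventing visible growth.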

SMILES	SAUR 9218 MIC
O=C(Nc1ccc(Cl)cc1C(=O)O)c1cc(-c2ccccc2)on1 [drawing 1111]	0.5 µg/mL

same assay, conditions: agar dilution, Mueller Hinton agar, incubated overnight at 35° C.; lowest concentration that inhibits visible growth; read-out: SAUR 9218 MIC

SMILES	MIC
Cn1c(C(=O)Nc2ccc(C#N)cc2C(=O)O)cc2ccc(N(S(=O)(=O)c3ccccc3)S(=O)(=O)c3ccccc3)cc21	0.5 µg/mL (≈ 0.813 µM)
N#Cc1ccc(NC(=O)c2noc3ccccc23)c(C(=O)O)c1	0.125 µg/mL (≈ 0.407 µM)
N#Cc1ccc(NC(=O)c2noc3cc(NS(=O)(=O)c4ccccc4)ccc23)c(C(=O)O)c1	1 µg/mL (≈ 2.16 µM)
N#Cc1ccc(NC(=O)c2cc3cccc(NC(=O)C4CCCN4)c3[nH]2)c(C(=O)O)c1 (stereo not shown)	> 128 µg/mL
CC(=O)Nc1cccc(-c2cccc3cc(C(=O)Nc4ccc(C#N)cc4C(=O)O)n(C)c23)c1	0.5 µg/mL (≈ 1.11 µM)
N#Cc1ccc(NC(=O)c2ncc(-c3ccccc3)s2)c(C(=O)O)c1	1 µg/mL (≈ 2.86 µM)
CCCCSc1ccc(C(=O)Nc2ccc(C#N)cc2C(=O)O)cn1	0.25 µg/mL (≈ 0.703 µM)
N#Cc1ccc(NC(=O)c2noc3ccc(-c4ccccc4C(F)(F)F)cc23)c(C(=O)O)c1	0.125 µg/mL (≈ 0.277 µM)
Cc1c(C(=O)Cc2cncc(C(=O)Nc3ccc(C#N)cc3C(=O)O)c2)c(=O)n(-c2ccccc2)n1C	32 µg/mL (≈ 64.6 µM)
O=C(Nc1ccc(Br)cc1C(=O)O)c1ccc(SC2CCCCC2)nc1	1 µg/mL (≈ 2.3 µM)
N#Cc1ccc(NC(=O)c2ccoc2)c(C(=O)O)c1	> 128 µg/mL
N#Cc1ccc(NC(=O)c2cc3cccc(NC(=O)c4ccccc4)c3[nH]2)c(C(=O)O)c1	2 µg/mL (≈ 4.71 µM)
Cn1c(C(=O)Nc2ccc(C#N)cc2C(=O)O)cc2cccc(NS(=O)(=O)CCCCl)c21	0.125 µg/mL (≈ 0.263 µM)
CCOc1ccc(CC(=O)Nc2cccc3cc(C(=O)Nc4ccc(C#N)cc4C(=O)O)[nH]c23)cc1	0.5 µg/mL (≈ 1.04 µM)
Cc1cc(C(=O)Nc2ccc(Br)cc2C(=O)O)c(C)o1	> 128 µg/mL
O=C(O)c1cc(Br)ccc1NC(=O)c1noc2cc(Cl)ccc12	1 µg/mL (≈ 2.53 µM)
O=C(O)c1cc(Br)ccc1NC(=O)c1cccc2c1CCN(Cc1ccccc1)S2(=O)=O	8 µg/mL (≈ 15.5 µM)
Cl.N#Cc1ccc(NC(=O)c2ccc(SCc3ccccc3)nc2)c(C(=O)O)c1	0.25 µg/mL
CCCCCCSc1ccc(C(=O)Nc2ccc(Br)cc2C(=O)O)nn1	0.125 µg/mL (≈ 0.285 µM)
N#Cc1ccc(NC(=O)c2ccc(S(=O)(=O)Cc3ccccc3)nc2)c(C(=O)O)c1	64 µg/mL (≈ 152 µM)
O=C(Nc1ccc(Br)cc1C(=O)O)c1cccc(SCc2ccccc2)n1	16 µg/mL (≈ 36.1 µM)
O=C(Nc1ccc(Br)cc1C(=O)O)c1ccc(-c2ccc(Cl)cc2)o1	32 µg/mL (≈ 76.1 µM)
N#Cc1ccc(NC(=O)c2cc3cccc(NS(=O)(=O)c4ccc(OC(F)(F)F)cc4)c3[nH]2)c(C(=O)O)c1	1 µg/mL (≈ 1.84 µM)
N#Cc1ccc(NC(=O)c2cc3cccc(NC(=O)c4ccc(Cl)nc4)c3[nH]2)c(C(=O)O)c1	1 µg/mL (≈ 2.17 µM)

SMILES	MIC
O=C(Nc1ccc(Br)cc1C(=O)O)c1ccc2ccccc2n1	8 µg/mL (≈ 21.6 µM)
N#Cc1ccc(NC(=O)c2cc3cccc(NC(=O)c4cc(-c5ccccc5)on4)c3[nH]2)c(C(=O)O)c1	1 µg/mL (≈ 2.03 µM)
N#Cc1ccc(NC(=O)c2n[nH]c3ccccc23)c(C(=O)O)c1	16 µg/mL (≈ 52.2 µM)
CCCCCSc1ccc(C(=O)Nc2ccc(Br)cc2C(=O)O)nn1	0.03 µg/mL (≈ 0.0707 µM)
Cc1cccc(CC(=O)Nc2cccc3cc(C(=O)Nc4ccc(C#N)cc4C(=O)O)[nH]c23)c1	0.125 µg/mL (≈ 0.276 µM)
CCCCN(CCCC)CCCNS(=O)(=O)c1csc(C(=O)Nc2ccc(Br)cc2C(=O)O)c1C	> 128 µg/mL
CS(=O)(=O)Nc1ccc2c(C(=O)Nc3ccc(C#N)cc3C(=O)O)noc2c1	2 µg/mL (≈ 5 µM)
Cn1c(C(=O)Nc2ccc(C#N)cc2C(=O)O)cc2ccc(NC(=O)c3ccc(OC(F)(F)F)cc3)cc21	2 µg/mL (≈ 3.83 µM)
Cn1c(C(=O)Nc2ccc(C#N)cc2C(=O)O)cc2ccc(NS(=O)(=O)c3cccc4cccnc34)cc21	1 µg/mL (≈ 1.9 µM)
N#Cc1ccc(NC(=O)c2noc3cc(NS(=O)(=O)c4ccc(F)cc4)ccc23)c(C(=O)O)c1	0.5 µg/mL (≈ 1.04 µM)
Cc1sc(C(=O)Nc2ccc(Br)cc2C(=O)O)cc1S(=O)(=O)N1CCN(c2ccc(Cl)cc2)CC1	> 128 µg/mL
CC(C)(C)c1ccc(CC(=O)Nc2cccc3cc(C(=O)Nc4ccc(C#N)cc4C(=O)O)[nH]c23)cc1	0.5 µg/mL (≈ 1.01 µM)
Cn1c(C(=O)Nc2ccc(C#N)cc2C(=O)O)cc2cccc(OCC3CCCCO3)c21 (stereo not shown)	0.5 µg/mL (≈ 1.15 µM)
N#Cc1ccc(NC(=O)c2cc3cccc(NC(=O)C4CC4)c3[nH]2)c(C(=O)O)c1	1 µg/mL (≈ 2.57 µM)
O=C(Nc1ccc(Br)cc1C(=O)O)c1ncc(-c2ccco2)o1	2 µg/mL (≈ 5.3 µM)
N#Cc1ccc(NC(=O)c2cncc(-c3ccccn3)c2)c(C(=O)O)c1	> 128 µg/mL
Cc1noc(C)c1-c1ccc2c(C(=O)Nc3ccc(C#N)cc3C(=O)O)noc2c1	0.125 µg/mL (≈ 0.311 µM)
O=C(Nc1ccc(Br)cc1C(=O)O)c1ncc(-c2ccc(F)cc2)o1	2 µg/mL (≈ 4.94 µM)
O=C(Nc1ccc(Br)cc1C(=O)O)c1ncc(-c2ccccc2C(F)(F)F)o1	1 µg/mL (≈ 2.2 µM)
Cc1cccc2cc(C(=O)Nc3ccc(C#N)cc3C(=O)O)[nH]c12	2 µg/mL (≈ 6.26 µM)
Cc1c(S(=O)(=O)N2CC3CC2CN3Cc2ccccc2)csc1C(=O)Nc1ccc(Br)cc1C(=O)O (stereo not shown)	> 128 µg/mL
N#Cc1ccc(NC(=O)c2cc3cccc(NC(=O)Cc4ccc5c(c4)OCO5)c3[nH]2)c(C(=O)O)c1	0.5 µg/mL (≈ 1.04 µM)
O=C(Nc1ccc(Br)cc1C(=O)O)c1ccsc1	> 128 µg/mL
O=C(Nc1ccc(Br)cc1C(=O)O)c1csc(S(=O)(=O)NC2Cc3ccccc3C2)c1	8 µg/mL (≈ 15.3 µM)

SMILES	MIC
CCC(=O)COc1ccccc1-c1cc(C(=O)Nc2ccc(O)cc2C(=O)O)no1	1 µg/mL (≈ 2.44 µM)
N#Cc1ccc(NC(=O)c2ccc(SCCCCN)nc2)c(C(=O)O)c1.O=C(O)C(F)(F)F	2 µg/mL
CC(=O)Nc1ccc(-c2cc3onc(C(=O)Nc4ccc(Br)cc4C(=O)O)c3cc2NC(C)=O)c(C(F)(F)F)c1	0.0075 µg/mL (≈ 0.0121 µM)
N#Cc1ccc(NC(=O)c2cncc(-c3cnccn3)c2)c(C(=O)O)c1	16 µg/mL (≈ 46.3 µM)
N#Cc1ccc(NC(=O)c2noc3ccc(NCC4CC4)cc23)c(C(=O)O)c1	0.5 µg/mL (≈ 1.33 µM)
Cn1nc(C(=O)Nc2ccc(Br)cc2C(=O)O)cc1-c1ccccc1	32 µg/mL (≈ 80 µM)
CCCCSc1cnc(C(=O)Nc2ccc(Cl)cc2C(=O)O)cn1	0.5 µg/mL (≈ 1.37 µM)
N#Cc1ccc(-c2cnc(C(=O)Nc3ccc(Br)cc3C(=O)O)o2)cc1	8 µg/mL (≈ 19.4 µM)
N#Cc1ccc(NC(=O)c2cc(-c3ccccc3Oc3ccccc3-c3ccccc3)on2)c(C(=O)O)c1	> 128 µg/mL
O=C(Nc1ccc(Br)cc1C(=O)O)c1ccoc1	> 128 µg/mL
CC(=O)OCC(=O)Nc1cccc2cc(C(=O)Nc3ccc(C#N)cc3C(=O)O)[nH]c12	2 µg/mL (≈ 4.76 µM)
O=C(Nc1ccc(Br)cc1C(=O)O)C1=NS(=O)(=O)c2ccccc21	> 128 µg/mL
N#Cc1ccc(NC(=O)c2cc3cccc(NC(=O)C4CCOC4)c3[nH]2)c(C(=O)O)c1 (stereo not shown)	2 µg/mL (≈ 4.78 µM)
O=C(Nc1ccc(Br)cc1C(=O)O)c1csc(S(=O)(=O)N2CCN(c3ccc(Cl)cc3)CC2)c1	32 µg/mL (≈ 54.7 µM)
N#Cc1ccc(NC(=O)c2cc3cccc(NC(=O)c4csc(SCc5ccccc5)n4)c3[nH]2)c(C(=O)O)c1	> 128 µg/mL
N#Cc1ccc(/C=C/c2noc3ccccc23)c(C(=O)O)c1	64 µg/mL (≈ 220 µM)
O=C(O)c1cc(Cl)ccc1/C=C/c1cc(-c2ccccc2)on1	32 µg/mL (≈ 98.2 µM)
N#Cc1ccc(NC(=O)c2ncc(-c3cccc(Cl)c3)s2)c(C(=O)O)c1	1 µg/mL (≈ 2.61 µM)
N#Cc1ccc(NC(=O)c2ccc(SCc3ccncc3)nn2)c(C(=O)O)c1	0.25 µg/mL (≈ 0.639 µM)
Cc1sc(C(=O)Nc2ccc(C#N)cc2C(=O)O)cc1S(=O)(=O)N1CCC(O)CC1	16 µg/mL (≈ 35.6 µM)
COCC(OC)C(Cc1cnc(C(=O)Nc2ccc(Br)cc2C(=O)O)cn1)OC (stereo not shown)	> 128 µg/mL
N#Cc1ccc(NC(=O)c2cncc(-c3ccc(Cl)cc3)c2)c(C(=O)O)c1	> 128 µg/mL
N#Cc1ccc(NC(=O)c2cc(OCc3ccccc3)ccn2)c(C(=O)O)c1	0.5 µg/mL (≈ 1.34 µM)
Cn1c(C(=O)Nc2ccc(Cl)cc2C(=O)O)cc2ccccc21	4 µg/mL (≈ 12.2 µM)

SMILES	MIC
Cn1c(C(=O)Nc2ccc(C#N)cc2C(=O)O)c(Br)c2cccc(OCc3ccccc3)c21	1 µg/mL (≈ 1.98 µM)
N#Cc1ccc(NC(=O)c2cc3cccc(NC(=O)Cc4ccccc4Cl)c3[nH]2)c(C(=O)O)c1	0.25 µg/mL (≈ 0.529 µM)
COCCOCCCSc1cnc(C(=O)Nc2ccc(C#N)cc2C(=O)O)cn1	1 µg/mL (≈ 2.4 µM)
CC(C)n1c(C(=O)Nc2ccc(C#N)cc2C(=O)O)cc2ccccc21	2 µg/mL (≈ 5.76 µM)
N#Cc1ccc(NC(=O)c2noc3ccc(-c4ccccc4F)cc23)c(C(=O)O)c1	0.125 µg/mL (≈ 0.311 µM)
Cc1sc(C(=O)Nc2ccc(C#N)cc2C(=O)O)cc1S(=O)(=O)N1CCN(c2ccccc2)CC1	8 µg/mL (≈ 15.7 µM)
CCOCCOCCOc1ccccc1-c1cc(C(=O)Nc2ccc(C#N)cc2C(=O)O)no1	0.5 µg/mL (≈ 1.07 µM)
COc1ccc(-c2cc(C(=O)Nc3ccc(Br)cc3C(=O)O)nn2C)cc1	> 128 µg/mL
Nc1ccc(CCNS(=O)(=O)c2cc(C(=O)Nc3ccc(Br)cc3C(=O)O)cs2)cc1	128 µg/mL (≈ 244 µM)
O=C(Nc1ccc(Br)cc1C(=O)O)c1cc(-c2ccccc2F)on1	0.5 µg/mL (≈ 1.23 µM)
O=C(Nc1ccc(Br)cc1C(=O)O)c1ccc2c(c1)S(=O)(=O)c1ccccc1C2=O	16 µg/mL (≈ 32.9 µM)
N#Cc1ccc(NC(=O)c2cncc(Br)c2)c(C(=O)O)c1	8 µg/mL (≈ 23.1 µM)
O=C(Nc1ccc(Br)cc1C(=O)O)c1cccs1	> 128 µg/mL
N#Cc1ccc(NC(=O)c2cc3cccc(NC(=O)C(Cl)c4ccccc4)c3[nH]2)c(C(=O)O)c1 (stereo not shown)	0.125 µg/mL (≈ 0.264 µM)
N#Cc1ccc(NC(=O)c2cc(-c3ccccc3OCCCCCCl)on2)c(C(=O)O)c1	0.125 µg/mL (≈ 0.275 µM)
CCCS(=O)(=O)Nc1cccc2cc(C(=O)Nc3ccc(C#N)cc3C(=O)O)n(C)c12	0.5 µg/mL (≈ 1.14 µM)
Cl.Cn1c(C(=O)Nc2ccc(C#N)cc2C(=O)O)cc2cccc(OCC(O)CN3CCOCC3)c21 (stereo not shown)	1 µg/mL
COC(=O)CSc1ccc(C(=O)Nc2ccc(C#N)cc2C(=O)O)cn1	0.5 µg/mL (≈ 1.35 µM)
Cc1ccsc1-c1cc(C(=O)Nc2ccc(C#N)cc2C(=O)O)no1	0.125 µg/mL (≈ 0.354 µM)
N#Cc1ccc(NC(=O)c2csc(SCc3ccccc3)n2)c(C(=O)O)c1	4 µg/mL (≈ 10.1 µM)
N#Cc1ccc(NC(=O)c2ccc(N3CCCCC3)nc2)c(C(=O)O)c1	8 µg/mL (≈ 22.8 µM)
COCC(C)Oc1ccccc1-c1cc(C(=O)Nc2ccc(C#N)cc2C(=O)O)no1 (stereo not shown)	0.25 µg/mL (≈ 0.593 µM)
CCCCN(CCO)S(=O)(=O)c1cc(C(=O)Nc2ccc(C#N)cc2C(=O)O)sc1C	32 µg/mL (≈ 68.7 µM)
CC(=O)Nc1ccc2onc(C(=O)Nc3ccc(C#N)cc3C(=O)O)c2c1	2 µg/mL (≈ 5.49 µM)
